Laboratory results reported in patent publication US20220380331A1, “TREATMENT OF CONDITIONS OF THE NERVOUS SYSTEM” (priority 2019, published 2022).

Assays:
[1] = system: locomotor function of intact rats; conditions: female, Lister Hooded, rat, in vivo, 10 days
From the text: Firstly, the inventors questioned whether PNN removal throughout the CNS would affect normal sensation and motor functions. To investigate this, adult female Lister Hooded rats (n=11) were given ten days of oral PNNi treatment and subjected to routine behavioural testing.

PNN-HEK293 cells = assay: Immunocytochemistry of PNN formation (WFA) with PNNi analogues; type: cell-based, human
Procedure: To compare the efficacy of PNNi, JD009, and JD013 in reducing PNN formation, immunocytochemistry was conducted using the N-acetylgalactosamine-binding lectin WFA to label PNNs. PNN-HEK293 cells were exposed to 0.5 mM and 1 mM of the compounds for 3 days in vitro. […] Quantification of WFA fluorescence intensity per cell was derived in matched regions of interest (ROI) and normalising overall WFA fluorescence intensity to cell number.

[2] = system: acute contusive spinal cord injury; assay: Basso, Beattie and Bresnahan (BBB) HL locomotor open field test after moderate T9 contusion injury; type: in vivo, rat; conditions: daily oral treatment, 5 weeks after injury, vehicle ~10
Procedure: Adult female Lister-hooded rats (200-250 g) were obtained from Charles River Laboratories (Canterbury, UK). Rats were housed in pairs in Central Biomedical Services (University of Leeds, UK) in a temperature-controlled environment in (20±1° C.), with a 12 hr light/dark cycle (lights on at 07:00). All procedures and experiments complied with the UK Animals (Scientific Procedures) Act 1986. Using isofluorane as an anaesthetic (5% in 02 for induction and 1-2% in 02 for the duration of the procedure), animals were shaved and sterilised. Vertebral segments T7-13 were exposed and a dorsal laminectomy was performed at T8. Vertebral levels T7 and T8 were stabilised whilst an Infinite Horizon impactor (Precision Systems and Instrumentation, LLC, Fairfax Station, Va.) was used to provide a 200 kdyn Cx (moderate injury) at the level of T9. Muscles were sutured and the skin was closed with autoclips. Analgesia ([…] Buprenorphine; 0.015 mg/kg; Henry Schein Animal Health, Dumfries, UK) and antibiotics (Baytril enrofloxacin; 2.5 mg/kg; Henry Schein Animal Heath, Dumfries, UK) were given via subcutaneous injection immediately post-surgery and for three days following surgery. […] HL locomotor ability was assessed at various time points throughout the acute SCI paradigm using the BBB HL locomotor scale. […] Each BBB test was simultaneously assessed by two individuals. […]

mouse = conditions: in vivo, po; cited from earlier work
[3] = system: HL sensory function after spinal cord injury; assay: Von Frey assay (50% withdrawal threshold) in spinal cord injured rats; type: in vivo, rat
Procedure: Changes to HL sensory function was assessed using von Frey methodologies to look for hyperalgesia and neuropathic pain. Four animals at a time were acclimatised to Perspex cages with a wire mesh bottom (FIG. 3) for approximately fifteen to twenty minutes before the test began and until general movement and grooming activities stopped. Von Frey filaments (Touch Test™ Sensory Evaluator Kit of 20; #39337500; Leica Biosystems, Milton Keynes, England FIG. 3C) were depressed through the mesh-bottomed cage against the more sensitive plantar arch of the HL footpads where withdrawal of the limb was counted as a positive result. Flinching was also seen as a positive response whereas walking was an ambiguous response requiring retesting after an appropriate delay. The left hindpaw and right hindpaw of all animals were performed in series to provide a sufficient interval between stimuli.

Cc1cc(=O)oc2cc(O)ccc12 [PNNi, 4-methylumbelliferone]
FL correct steps [1]: 94.4±0.56% | FL missed steps [1]: 1.13±0.24% | FL slipped steps [1]: 4.35±0.54% | HL correct stepping on the horizontal ladder [1]: approximately 92.7±0.82% | HL misses on the horizontal ladder [1]: 1.92±0.41% | HL slips on the horizontal ladder [1]: 5.43±0.70% | PNN morphology and expression (WFA fluorescence intensity per cell) (PNN-HEK293 cells; 0.5 mM and 1 mM, 3 days in vitro): insufficient to cause substantial changes in PNN morphology and expression | PNN morphology and expression (WFA staining intensity) (PNN-HEK293 cells; 1 mM and 2 mM (FIG. 14 legend)): insufficient to cause substantial changes in PNN morphology and expression | BBB score [2]: ~15 scores | lethal dose (mouse): 7500 mg/kg | L-R average 50% withdrawal threshold, plantar hindpaws ([3]; 8 week PNNi with or without training, 9 and 12 WPI): did not show hyperalgesia | tactile sensitivity using von Frey hair test ([3]; treatment groups after T9 contusion injury, n=11): did not show any difference
